9 molecules from DBAASP can be followed below.

Structures are written as SMILES. ≈ marks a conversion by molar mass, not a printed value.

Among the test systems are Streptococcus uberis; Pasteurella multocida; Staphylococcus aureus; Escherichia coli; Micrococcus luteus; Listeria innocua; Bacillus cereus; Leuconostoc lactis.
What all share (test): ≥ marks a high value that may be exact or a test limit, other limits are often not marked, values filed in µg/mL are converted to µM
The subject of assay [1] is Bacillus subtilis ATCC 6051.
Assay [2] deals with Escherichia coli NEB5alpha.
In assay [3] the test system is Staphylococcus aureus ATCC 33591.
In assay [4] the test system is Pseudomonas aeruginosa ATCC 27853.
Assay [5] relates to Escherichia coli ATCC 25922.
Assay [6] relates to Enterococcus faecium ATCC 700221.
For assay [7], the system named is Staphylococcus epidermidis.
Assay [8] relates to Escherichia coli ATCC 8739.
Assay [9] relates to Staphylococcus aureus ATCC 6538.
For assay [10], the system named is Staphylococcus aureus ATCC 43300.
For assay [11], the system named is Candida albicans ATCC 90028.
For assay [12], the system named is Pseudomonas aeruginosa KCTC 1637.
In assay [13] the test system is Bacillus subtilis KCTC 3068.
Assay [14] relates to Staphylococcus aureus KCTC 1621.
Assay [15] deals with Escherichia coli KCTC 1682.
Assay [16] concerns Salmonella typhimurium KCTC 1926.
The subject of assay [17] is Staphylococcus epidermidis KCTC 1917.

What is called MIC is the lowest concentration found to suppress growth. Read a low MIC as inhibition by little substance. Regarding `NCCCC[C@H](NC(=O)[C@H](CCC(=O)O)NC(=O)[C@H](CC(=O)O)NC(=O)[C@H](CCC(=O)O)NC(=O)[C@H](CC(=O)O)NC(=O)[C@H](CCC(=O)O)NC(=O)[C@@H](N)CC(=O)O)C(=O)N[C@@H](CCCN=C(N)N)C(=O)N[C@@H](CCC(N)=O)C(=O)N1CCC[C@H]1C(=O)N[C@@H](Cc1cnc[nH]1)C(=O)O` [DEDEDEKRQPH], the MIC in assay [1] is at least 500 µM; in assay [2] it was at least 1000 µM.
Regarding `CC[C@H](C)[C@H](NC(=O)[C@H](CCCCN)NC(=O)[C@H](CCCCN)NC(=O)[C@H](CC(C)C)NC(=O)[C@H](CC(C)C)NC(=O)[C@H](CCCCN)NC(=O)[C@H](CCCCN)NC(=O)[C@@H](NC(=O)[C@H](CCCN=C(N)N)NC(=O)[C@H](CCCCN)NC(=O)[C@H](CC(C)C)NC(=O)[C@H](CC(C)C)NC(=O)CN)[C@@H](C)CC)C(=O)N[C@@H](CCCCN)C(=O)N[C@@H](CCCCN)C(=O)N[C@@H](CC(C)C)C(=O)N[C@@H](CC(C)C)C(N)=O` [GLLKRIKKLLKKIKKLL], the MIC in assay [3] came to 12.5 µM (≈ 25.4 µg/mL); in assay [4], 12.5 µM (≈ 25.4 µg/mL); in assay [5], 12.5 µM (≈ 25.4 µg/mL); in [6], 6.3 µM (≈ 12.8 µg/mL).
As to `CC[C@H](C)[C@H](NC(=O)[C@@H](NC(=O)[C@@H]1CCCN1C(=O)[C@@H](NC(=O)[C@@H](NC(=O)[C@H](Cc1cnc[nH]1)NC(=O)[C@@H]1CCCN1C(=O)[C@H](CC(C)C)NC(=O)[C@@H](NC(=O)[C@H](Cc1cnc[nH]1)NC(=O)[C@H](CCC(N)=O)NC(=O)[C@H](C)NC(=O)[C@@H](NC(=O)[C@H](CO)NC(=O)CNC(=O)[C@H](CC(C)C)NC(=O)[C@@H](NC(=O)[C@H](CO)NC(=O)[C@H](CC(C)C)NC(=O)[C@H](CC(C)C)NC(=O)CN)C(C)C)C(C)C)C(C)C)C(C)C)C(C)C)C(C)C)C(=O)N[C@@H](C)C(=O)N[C@@H](CCC(=O)O)C(=O)N[C@@H](Cc1cnc[nH]1)C(=O)N[C@@H](CC(C)C)C(N)=O` [GLLSVLGSVAQHVLPHVVPVIAEHL], the MIC against Streptococcus uberis is at least 38.7 µM; in the assay on Pasteurella multocida, 9.67 µM (≈ 25 µg/mL); against Staphylococcus aureus, 38.7 µM (≈ 100 µg/mL); in the assay with Escherichia coli it was 38.7 µM (≈ 100 µg/mL); against Micrococcus luteus it was 0.58 µM (≈ 1.5 µg/mL); in the assay on Listeria innocua, at least 38.7 µM. Also, the MIC in the assay on Bacillus cereus is 19.3 µM (≈ 50 µg/mL); in the assay on Leuconostoc lactis, 9.67 µM (≈ 25 µg/mL); in assay [7] it was at least 38.7 µM.
As for `CC[C@H](C)[C@H](NC(=O)[C@H](CCCCN)NC(=O)[C@@H](NC(=O)[C@H](CO)NC(=O)[C@H](CC(N)=O)NC(=O)[C@H](Cc1c[nH]c2ccccc12)NC(=O)[C@H](CC(C)C)NC(=O)CN)[C@@H](C)CC)C(=O)N[C@@H](C)C(=O)NCC(=O)N[C@@H](CCCCN)C(=O)N[C@@H](CCCCN)C(=O)N[C@@H](CC(C)C)C(=O)N[C@@H](Cc1ccccc1)C(=O)N[C@H](C(=O)N[C@@H](CC(N)=O)C(=O)N[C@H](C(=O)N[C@@H](CC(C)C)C(=O)N[C@@H](CC(=O)O)C(=O)N[C@@H](CCCCN)C(=O)N[C@H](C(=O)N[C@@H](CCCN=C(N)N)C(=O)N[C@H]1CSSC[C@@H](C(=O)N[C@@H](CCCCN)C(=O)N[C@H](C(=O)N[C@@H](CO)C(=O)N2CCC[C@H]2C(=O)N[C@@H](CC(=O)O)C(=O)N[C@H](C(=O)N[C@@H](CCC(=O)O)C(=O)N[C@@H](Cc2ccc(O)cc2)C(=O)N[C@@H](Cc2cnc[nH]2)C(=O)N[C@@H](CCCCN)C(=O)O)C(C)C)[C@@H](C)O)NC(=O)CNC(=O)CNC(=O)[C@H](C)NC(=O)[C@H](C(C)C)NC(=O)[C@H](CCCCN)NC1=O)[C@@H](C)CC)C(C)C)C(C)C` [GLWNSIKIAGKKLFVNVLDKIRCKVAGGCKTSPDVEYHK], the MIC in [8] worked out at 6.3 µM (≈ 27.2 µg/mL); in assay [9], 6.3 µM (≈ 27.2 µg/mL); in assay [10] it was 100 µM (≈ 432 µg/mL).
As to `CC[C@H](C)[C@H](NC(=O)[C@H](CCCCN)NC(=O)[C@@H](NC(=O)[C@H](CO)NC(=O)[C@H](CC(N)=O)NC(=O)[C@H](Cc1c[nH]c2ccccc12)NC(=O)[C@H](CC(C)C)NC(=O)CN)[C@@H](C)CC)C(=O)N[C@@H](C)C(=O)NCC(=O)N[C@@H](CCCCN)C(=O)N[C@@H](CCCCN)C(=O)N[C@@H](CC(C)C)C(=O)N[C@@H](Cc1ccccc1)C(=O)N[C@H](C(=O)N[C@@H](CC(N)=O)C(=O)N[C@H](C(=O)N[C@@H](CC(C)C)C(=O)N[C@@H](CC(=O)O)C(=O)N[C@@H](CCCCN)C(=O)N[C@H](C(=O)N[C@@H](CCCN=C(N)N)C(=O)N[C@@H](CO)C(=O)N[C@@H](CCCCN)C(=O)N[C@H](C(=O)N[C@@H](C)C(=O)NCC(=O)NCC(=O)N[C@@H](CO)C(=O)O)C(C)C)[C@@H](C)CC)C(C)C)C(C)C` [GLWNSIKIAGKKLFVNVLDKIRSKVAGGS], the MIC was 3.1 µM (≈ 9.61 µg/mL) in assay [8], at least 100 µM in assay [11], 6.3 µM (≈ 19.5 µg/mL) in [9] and 25 µM (≈ 77.5 µg/mL) in assay [10].
`CC[C@H](C)[C@H](NC(=O)[C@@H](NC(=O)CN)C(C)C)C(=O)N[C@@H](C)C(=O)N[C@@H](C)C(=O)N[C@@H](C)C(=O)N[C@@H](CCCCN)C(=O)N[C@@H](CCCCN)C(=O)N[C@H](C(=O)N[C@H](C(=O)N[C@@H](CC(N)=O)C(=O)N[C@H](C(=O)N[C@@H](CC(C)C)C(=O)N[C@@H](CCCCN)C(=O)N[C@@H](CC(N)=O)C(=O)N[C@@H](CC(C)C)C(=O)N[C@@H](Cc1ccccc1)C(N)=O)C(C)C)C(C)C)C(C)C` [GVIAAAKKVVNVLKNLF]: the MIC against Streptococcus uberis is 14 µM (≈ 25 µg/mL); in the assay with Pasteurella multocida it was at least 56 µM; against Staphylococcus aureus, 14 µM (≈ 25 µg/mL); in the assay on Escherichia coli, over 56 µM; against Micrococcus luteus it was 6.73 µM (≈ 12 µg/mL); with Listeria innocua, 14 µM (≈ 25 µg/mL). For the same molecule, the values for the MIC (with Bacillus cereus; in the assay on Leuconostoc lactis; in assay [7]) were 14 µM (≈ 25 µg/mL), 1.68 µM (≈ 3 µg/mL) and 6.73 µM (≈ 12 µg/mL), respectively.
Regarding `CC[C@H](C)[C@H](NC(=O)[C@@H](NC(=O)[C@H](C)NC(=O)[C@H](C)NC(=O)[C@@H](NC(=O)[C@H](CCCCN)NC(=O)[C@H](CCCCN)NC(=O)[C@@H](NC(=O)[C@@H](NC(=O)[C@H](C)NC(=O)[C@H](Cc1ccccc1)NC(=O)[C@H](CC(C)C)NC(=O)[C@@H](N)CCCCN)C(C)C)[C@@H](C)CC)C(C)C)C(C)C)C(=O)NCC(=O)NCC(=O)N[C@@H](CC(C)C)C(N)=O` [KLFAVIKKVAAVIGGL], the MIC is at least 61.5 µM in the assay with Streptococcus uberis; at least 61.5 µM against Pasteurella multocida; 30.7 µM (≈ 50 µg/mL) against Staphylococcus aureus; 61.5 µM (≈ 99.9 µg/mL) in the assay on Escherichia coli; at least 61.5 µM against Micrococcus luteus; 15.4 µM (≈ 25 µg/mL) in the assay with Listeria innocua. Besides, the MIC is at least 61.5 µM in the assay with Bacillus cereus, 7.38 µM (≈ 12 µg/mL) in the assay with Leuconostoc lactis and 15.4 µM (≈ 25 µg/mL) in assay [7].
As for `CC[C@H](C)[C@H](NC(=O)[C@H](CCCN=C(N)N)NC(=O)[C@H](CCCCN)NC(=O)[C@H](CCCN=C(N)N)NC(=O)[C@@H](NC(=O)[C@H](CCCN=C(N)N)NC(=O)[C@@H](N)CCCCN)[C@@H](C)CC)C(=O)N[C@@H](CCCCN)C(=O)N[C@@H](CCCCN)C(=O)N[C@@H](Cc1c[nH]c2ccccc12)C(=O)N[C@@H](CC(C)C)C(=O)N[C@@H](CCCN=C(N)N)C(N)=O` [KRIRKRIKKWLR], the MIC in [12] worked out at 4 µM (≈ 6.72 µg/mL); in [13], 2 µM (≈ 3.36 µg/mL); in assay [14] it was 4 µM (≈ 6.72 µg/mL); in assay [15], 2 µM (≈ 3.36 µg/mL); in [16], 2 µM (≈ 3.36 µg/mL); in assay [17], 1 µM (≈ 1.68 µg/mL).
In assay [2], `CC[C@H](C)[C@H](NC(=O)[C@@H]1CCCN1C(=O)[C@H](CCSC)NC(=O)[C@H](CC(=O)O)NC(=O)[C@H](CCCN=C(N)N)NC(=O)[C@H](CCC(N)=O)NC(=O)[C@@H]1CCCN1C(=O)[C@H](Cc1ccc(O)cc1)NC(=O)[C@@H]1CCCN1C(=O)[C@@H](N)C(C)C)C(=O)N[C@@H](CCC(N)=O)C(=O)N[C@@H](C)C(=O)N[C@@H](Cc1ccccc1)C(=O)N[C@@H](CC(C)C)C(=O)O` [VPYPQRDMPIQAFL] showed an MIC of at least 493 µM.
